Measurements as given in article PMC4278837, “A Cyclic Peptidic Serine Protease Inhibitor: Increasing Affinity by Increasing Peptide Flexibility” (PLoS ONE, 2014).
Like-named read-outs stand apart in the source and are kept apart here. Each block holds one compound with its values, some of them ahead of it. Bridge positions count the residues as written; N and C are the ends. Peptide text beside a SMILES is read from it.

Columns and labels:
huPA-H99Y [1] = target: T1, huPA-H99Y (Homo sapiens, UniProt P00749, H272Y); assay: Ki for inhibition of huPA-H99Y, chromogenic substrate S-2444; type: biochemical
T1 construct: To ensure that the uPAs purified from the conditioned media were completely in the two-chain form, they were treated with plasmin; hexa-His (C); made in house; host or cells: HEK293 6E suspension cells
Text: (§1) Determination of Ki values
(§2) The initial reaction velocities were monitored at an absorbance of 405 nm. The inhibition constants (K i) were subsequently determined from the non-linear regression analyses of plots for V i/V o versus [I]0, using Equation 2, derived under assumption of competitive inhibition:
(§3) [drawing 2] (2) where V i and V 0 are the reaction velocities in the presence and absence of inhibitor, respectively; [S]0 and [I]0 are the substrate and inhibitor concentrations, respectively; K M is K M for substrate hydrolysis by each protease. In Equation 2, it is assumed that [S]free ≈ [S]0 and [I]free ≈ [I]0.

huPA-H99Y R35A = target: T2, huPA-H99Y R35A (Homo sapiens, UniProt P00749, H272Y/R198A); assay: Ki for inhibition of huPA-H99Y-R35A, chromogenic substrate; type: biochemical; conditions: 37°C; means ± S.D.; read-out: K i for inhibition of huPA-H99Y-R35A
T2 construct: To ensure that the uPAs purified from the conditioned media were completely in the two-chain form, they were treated with plasmin; hexa-His (C); made in house; host or cells: HEK293 6E suspension cells
Text: as §1, §2, §3

huPA-H99Y V41A = target: T3, huPA-H99Y V41A (Homo sapiens, UniProt P00749, H272Y/V208A); assay: Ki for inhibition of huPA-H99Y-V41A, chromogenic substrate; type: biochemical; conditions: 37°C; means ± S.D.; read-out: K i for inhibition of huPA-H99Y-V41A
T3 construct: To ensure that the uPAs purified from the conditioned media were completely in the two-chain form, they were treated with plasmin; hexa-His (C); made in house; host or cells: HEK293 6E suspension cells
Text: as §1, §2, §3

huPA-H99Y K143A = target: T4, huPA-H99Y K143A (Homo sapiens, UniProt P00749, H272Y/K320A); assay: Ki for inhibition of huPA-H99Y-K143A, chromogenic substrate; type: biochemical; conditions: 37°C; means ± S.D.; read-out: K i for inhibition of huPA-H99Y-K143A
T4 construct: To ensure that the uPAs purified from the conditioned media were completely in the two-chain form, they were treated with plasmin; hexa-His (C); made in house; host or cells: HEK293 6E suspension cells
Text: as §1, §2, §3

muPA K41A = target: T5, muPA K41A (Mus musculus, UniProt P06869, K210A); assay: Ki for inhibition of muPA-K41A, chromogenic substrate; type: biochemical, murine; conditions: means ± S.D.; read-out: K i for inhibition of muPA-K41A
T5 construct: To ensure that the uPAs purified from the conditioned media were completely in the two-chain form, they were treated with plasmin; hexa-His (C); made in house; host or cells: HEK293 6E suspension cells
T5 sequence (P06869 180-433 K210A): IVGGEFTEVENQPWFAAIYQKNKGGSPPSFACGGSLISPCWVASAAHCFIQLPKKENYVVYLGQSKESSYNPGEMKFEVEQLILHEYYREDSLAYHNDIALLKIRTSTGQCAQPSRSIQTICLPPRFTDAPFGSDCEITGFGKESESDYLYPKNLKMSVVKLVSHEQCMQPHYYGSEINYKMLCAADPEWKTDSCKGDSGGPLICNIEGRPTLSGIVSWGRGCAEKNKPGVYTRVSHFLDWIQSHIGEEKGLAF
T5 sequence (P06869 21-178 partner limits assumed): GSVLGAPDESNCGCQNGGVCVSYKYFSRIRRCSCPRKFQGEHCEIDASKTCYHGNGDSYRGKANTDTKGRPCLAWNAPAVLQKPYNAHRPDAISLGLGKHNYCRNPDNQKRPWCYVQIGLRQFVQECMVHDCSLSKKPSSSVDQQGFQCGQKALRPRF
Text: as §1, §2, §3

muPA Y99A = target: T6, muPA Y99A (Mus musculus, UniProt P06869, Y274A); assay: Ki for inhibition of muPA-Y99A, chromogenic substrate; type: biochemical, murine; conditions: means ± S.D.; read-out: K i for inhibition of muPA-Y99A
T6 construct: To ensure that the uPAs purified from the conditioned media were completely in the two-chain form, they were treated with plasmin; hexa-His (C); made in house; host or cells: HEK293 6E suspension cells
T6 sequence (P06869 180-433 Y274A): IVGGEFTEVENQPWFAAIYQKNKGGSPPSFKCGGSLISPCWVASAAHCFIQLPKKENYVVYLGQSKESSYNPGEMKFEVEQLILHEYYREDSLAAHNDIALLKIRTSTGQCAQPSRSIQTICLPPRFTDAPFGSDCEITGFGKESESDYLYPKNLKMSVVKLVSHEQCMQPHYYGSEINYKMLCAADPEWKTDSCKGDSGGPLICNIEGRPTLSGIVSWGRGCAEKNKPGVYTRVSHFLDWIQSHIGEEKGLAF
T6 sequence (P06869 21-178 partner limits assumed): as the sequence (P06869 21-178 partner limits assumed) above
Text: as §1, §2, §3

muPA K143A = target: T7, muPA K143A (Mus musculus, UniProt P06869, K322A); assay: Ki for inhibition of muPA-K143A, chromogenic substrate; type: biochemical, murine; conditions: means ± S.D.; read-out: K i for inhibition of muPA-K143A
T7 construct: To ensure that the uPAs purified from the conditioned media were completely in the two-chain form, they were treated with plasmin; hexa-His (C); made in house; host or cells: HEK293 6E suspension cells
T7 sequence (P06869 180-433 K322A): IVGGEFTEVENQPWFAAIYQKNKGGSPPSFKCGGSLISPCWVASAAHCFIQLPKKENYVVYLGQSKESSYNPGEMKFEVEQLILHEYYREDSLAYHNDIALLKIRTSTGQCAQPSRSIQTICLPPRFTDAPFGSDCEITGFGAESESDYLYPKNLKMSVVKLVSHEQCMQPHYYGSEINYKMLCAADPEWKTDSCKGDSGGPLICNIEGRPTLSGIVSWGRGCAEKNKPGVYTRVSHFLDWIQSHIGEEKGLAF
T7 sequence (P06869 21-178 partner limits assumed): as the sequence (P06869 21-178 partner limits assumed) above
Text: as §1, §2, §3

muPA S190A = target: T8, muPA S190A (Mus musculus, UniProt P06869, S373A); assay: Ki for inhibition of muPA-S190A, chromogenic substrate; type: biochemical, murine; conditions: means ± S.D.; read-out: K i for inhibition of muPA-S190A
T8 construct: To ensure that the uPAs purified from the conditioned media were completely in the two-chain form, they were treated with plasmin; hexa-His (C); made in house; host or cells: HEK293 6E suspension cells
T8 sequence (P06869 180-433 S373A): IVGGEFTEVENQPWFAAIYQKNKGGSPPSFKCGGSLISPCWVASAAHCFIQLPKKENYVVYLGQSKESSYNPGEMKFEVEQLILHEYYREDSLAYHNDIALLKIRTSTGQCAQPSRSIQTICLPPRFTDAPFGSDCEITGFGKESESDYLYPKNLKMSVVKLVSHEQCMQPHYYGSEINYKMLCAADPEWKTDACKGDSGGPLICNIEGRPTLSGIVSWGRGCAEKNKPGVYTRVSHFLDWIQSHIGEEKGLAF
T8 sequence (P06869 21-178 partner limits assumed): as the sequence (P06869 21-178 partner limits assumed) above
Text: as §1, §2, §3

muPA V213T = target: T9, muPA V213T (Mus musculus, UniProt P06869, V396T); assay: Ki for inhibition of muPA-V213T, chromogenic substrate; type: biochemical, murine; conditions: means ± S.D.; read-out: K i for inhibition of muPA-V213T
T9 construct: To ensure that the uPAs purified from the conditioned media were completely in the two-chain form, they were treated with plasmin; hexa-His (C); made in house; host or cells: HEK293 6E suspension cells
T9 sequence (P06869 180-433 V396T): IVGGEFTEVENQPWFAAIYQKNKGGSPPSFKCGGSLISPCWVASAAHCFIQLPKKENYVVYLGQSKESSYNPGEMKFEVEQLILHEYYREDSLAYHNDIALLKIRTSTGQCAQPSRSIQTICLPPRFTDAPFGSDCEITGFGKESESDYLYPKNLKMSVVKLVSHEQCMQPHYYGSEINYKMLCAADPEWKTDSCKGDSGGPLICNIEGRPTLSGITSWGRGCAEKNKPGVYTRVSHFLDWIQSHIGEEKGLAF
T9 sequence (P06869 21-178 partner limits assumed): as the sequence (P06869 21-178 partner limits assumed) above
Text: as §1, §2, §3

huPA-H99Y [2] = target: T1, huPA-H99Y; assay: Surface plasmon resonance analysis of peptide binding to huPA-H99Y; conditions: SPR, 25°C, pH 7.4
Procedure: (§4) Surface plasmon resonance (SPR) analysis
(§5) To determine the equilibrium binding constants (KD), the association rate constants (kon) and dissociation rate constants (koff) for peptide binding to uPA, surface plasmon resonance analysis was performed on a Biacore T200 instrument (Biacore, Uppsala, Sweden). A CM5 chip was coupled with the uPA variant (muPA or huPAH99Y) to be analysed, by injecting a concentration of 30 µg/mL uPA in immobilization buffer (10 mM sodium acetate, pH 5.0), aiming for an immobilised level of approximately 500 response units (RU). Immobilisation was followed by surface blocking with ethanolamine. A reference cell was prepared in the same way, without coupling of uPA. Mupain-1 variants in HBS with 0.1% BSA, in a dilution series, were injected at a flow rate of 30 µL per min during 60 s at 25°C. Subsequently, the dissociation was monitored during 600 s. Kinetic constants (k on and k off) were calculated with the Biacore Evaluation Software, using the 1∶1 kinetic fit. The K D values were calculated as k off /k on.

muPA = target: T10, muPA (Mus musculus, UniProt P06869); assay: Surface plasmon resonance analysis of peptide binding to muPA; parameters: species or system murine; conditions: SPR, 25°C, pH 7.4
T10 construct: To ensure that the uPAs purified from the conditioned media were completely in the two-chain form, they were treated with plasmin; hexa-His (C); made in house; host or cells: HEK293 6E suspension cells
T10 sequence (P06869 180-433 limits assumed): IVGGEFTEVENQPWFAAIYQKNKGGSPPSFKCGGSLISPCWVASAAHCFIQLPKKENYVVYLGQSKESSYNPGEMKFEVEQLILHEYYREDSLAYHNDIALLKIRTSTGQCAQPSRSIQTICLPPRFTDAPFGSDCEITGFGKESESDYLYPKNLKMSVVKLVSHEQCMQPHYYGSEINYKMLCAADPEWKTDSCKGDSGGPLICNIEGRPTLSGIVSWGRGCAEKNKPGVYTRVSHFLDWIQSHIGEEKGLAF
T10 sequence (P06869 21-178 partner limits assumed): as the sequence (P06869 21-178 partner limits assumed) above
Procedure: as §4, §5

huPA-H99Y [3] = target: T11, huPA-H99Y (Homo sapiens, UniProt P00749, C299A/H272Y/N322Q); assay: Isothermal titration calorimetry for binding to huPA-H99Y catalytic domain; conditions: ITC, 25°C, pH 7.4
T11 construct: recombinant uPA catalytic domain (residues 159–411), harbouring a H99Y mutation; made in house; host or cells: Pichia pastoris X-33 (secreted)
Procedure: For these experiments, we used the catalytic domain of huPA-H99Y expressed in and purified from Pichia pastoris strain X-33 (see above). The protein was dissolved in and dialysed against a buffer of 20 mM sodium phosphate, pH 7.4, 140 mM NaCl. The protein concentration was determined by absorbance at 280 nm, using an extinction coefficient of 43810 M^−1cm^−1. The peptides were dissolved in the above-mentioned buffer. All isothermal titration calorimetry experiments were performed with a MicroCal^TM ITC200 instrument equilibrated to a temperature of 25°C (298oK). The concentration of uPA-H99Y catalytic domain used in the 200 µl sample cell was 5–50 µM, depending on the affinity of the ligand. Titrations were performed by injecting 2 µl of the ligand until the total syringe volume of 40 µl was spent. Titration of ligand into buffer was performed to obtain buffer correction. The equilibrium association constant KA and the reaction enthalpy ΔH were calculated by fitting the integrated titration peaks using a one-binding-site model in the ITC ORIGIN7 programme package. The following formulas for Gibbs free energy ΔG were used to analyse the measured energies
[drawing 4] (4) where R is the gas constant and T the absolute temperature. ΔS, the entropic change during the reaction, was calculated using equations 3 and 4 and the measured K A and ΔH values.

muPA wt = target: T12, muPA wt (Mus musculus, UniProt P06869); conditions: means ± S.D.; starred values reproduced from previous publications; ref Andersen et al., 2008; Hosseini et al., 2011; read-out: K i for inhibition of muPA wt; cited from earlier work
T12 construct: To ensure that the uPAs purified from the conditioned media were completely in the two-chain form, they were treated with plasmin; hexa-His (C); made in house; host or cells: HEK293 6E suspension cells
T12 sequence (P06869 180-433 limits assumed): as the sequence (P06869 180-433 limits assumed) above
T12 sequence (P06869 21-178 partner limits assumed): as the sequence (P06869 21-178 partner limits assumed) above

huPA-H99Y Q192A = huPA-H99Y Q192A (Homo sapiens, UniProt P00749, H272Y/Q373A); assay: Ki for inhibition of huPA-H99Y-Q192A, chromogenic substrate; type: biochemical; parameters: To ensure that the uPAs purified from the conditioned media were completely in the two-chain form, they were treated with plasmin; hexa-His (C); made in house; host or cells: HEK293 6E suspension cells; conditions: 37°C; means ± S.D.; read-out: K i for inhibition of huPA-H99Y-Q192A
Text: as §1, §2, §3

[4] = 37°C, means ± S.D., read-out: K i for inhibition of huPA-H99Y

Ki (huPA-H99Y [1]; [4]): > 1000 µM
Compound: CC(=O)N[C@H]1CSSC[C@@H](C(N)=O)NC(=O)[C@H](CC(=O)O)NC(=O)[C@H](CC(C)C)NC(=O)[C@H](Cc2ccc(O)cc2)NC(=O)[C@H](CCCNC(=N)N)NC(=O)[C@H](CO)NC(=O)[C@H](Cc2ccc(O)cc2)NC(=O)[C@H](C)NC(=O)[C@H](C)NC1=O [Mupain-1 P2A, CAAYSRYLDC] (Ac-CAAYSRYLDC-NH2; disulfide 1-10)

Ki (huPA-H99Y [1]; [4]): 5.99 ± 0.43 µM
Ki (huPA-H99Y R35A): 2.68 ± 0.29 µM
Ki (huPA-H99Y V41A): 7.2 ± 1.44 µM
Ki (huPA-H99Y K143A): 8.74 ± 0.64 µM
Ki (muPA K41A): 0.27 ± 0.029 µM
Ki (muPA Y99A): 27.2 ± 3.3 µM
Ki (muPA K143A): 4.34 ± 0.64 µM
Ki (muPA S190A): 3.02 ± 0.33 µM
Ki (muPA V213T): 0.373 ± 0.055 µM
k off, huPA-H99Y (huPA-H99Y [2]): 36.6±0.21 (3) s^-1, ×10^2
k on, huPA-H99Y (huPA-H99Y [2]): 2.60±0.20 (3) M^-1s^-1, ×10^-5
Kd (huPA-H99Y [2]; calculated as k off/k on, read-out: K D, huPA-H99Y): 1.41 ± 0.11 µM
k off, muPA (muPA): 4.01±0.31 (3) s^−1, ×10^2
k on, muPA (muPA): 0.985±0.169 (3) M^−1s^−1, ×10^−5
Kd (huPA-H99Y [3]): 1.17 ± 0.3 µM
Ki (huPA-H99Y Q192A): 4.85 ± 0.32 µM
Compound: CC(=O)N[C@H]1CSSC[C@@H](C(N)=O)NC(=O)[C@H](C)NC(=O)[C@H](CC(C)C)NC(=O)[C@H](Cc2ccc(O)cc2)NC(=O)[C@H](CCCNC(=N)N)NC(=O)[C@H](CO)NC(=O)[C@H](Cc2ccc(O)cc2)NC(=O)[C@H](C)NC(=O)[C@@H]2CCCN2C1=O [Mupain-1 D9A, CPAYSRYLAC] (Ac-CPAYSRYLAC-NH2; disulfide 1-10)
Ki (muPA wt): 0.89 ± 0.02 µM

Compound: CC(=O)N[C@H]1CSSC[C@@H](C(N)=O)NC(=O)[C@H](CC(=O)O)NC(=O)[C@H](CC(C)C)NC(=O)[C@H](Cc2ccc(O)cc2)NC(=O)[C@H](C)NC(=O)[C@H](CO)NC(=O)[C@H](Cc2ccc(O)cc2)NC(=O)[C@H](C)NC(=O)[C@@H]2CCCN2C1=O [Mupain-1 R6A, CPAYSAYLDC] (Ac-CPAYSAYLDC-NH2; disulfide 1-10)
Ki (huPA-H99Y [1]): > 1000 µM

Compound: CPAYSRYLDC [Mupain-1 L8A]
Ki (huPA-H99Y [1]; [4]): 19.1 ± 1.1 µM
